Measured values published in ChEMBL document CHEMBL4480444, “Structural requirement of tunicamycin V for MraY inhibition” (Bioorg Med Chem, 2019).

These compounds were tested against T1, Phospho-N-acetylmuramoyl-pentapeptide-transferase (Staphylococcus aureus, UniProt P0C1R8) (assay: Inhibition of Staphylococcus aureus MraY assessed as reduction in dansylated lipid I formation using UDP-MurNAc-dansylpentapeptide incubated for 3 hrs by fluorescence assay).
T1 sequence (P0C1R8 whole entry): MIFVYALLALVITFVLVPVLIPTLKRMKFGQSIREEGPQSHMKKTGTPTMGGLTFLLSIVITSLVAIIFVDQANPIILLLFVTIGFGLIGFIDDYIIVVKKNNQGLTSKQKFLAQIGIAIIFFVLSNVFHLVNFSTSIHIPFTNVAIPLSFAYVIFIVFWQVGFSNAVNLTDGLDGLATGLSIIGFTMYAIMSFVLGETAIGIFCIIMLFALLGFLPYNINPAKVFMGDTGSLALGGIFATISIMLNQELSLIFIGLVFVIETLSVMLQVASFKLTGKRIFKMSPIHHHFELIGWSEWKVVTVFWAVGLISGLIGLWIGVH

Row | Structure (SMILES) | IC50 [µM]
1 | CC(C)CCCCCCCCC/C=C/C(=O)N[C@H]1C(O)O[C@H](C[C@@H](O)[C@H]2O[C@@H](n3ccc(=O)[nH]c3=O)[C@H](O)[C@@H]2O)[C@H](O)[C@@H]1O (stereo not given in full) | 36
2 | CC(=O)N[C@H]1[C@H](O[C@H]2O[C@H](CO)[C@@H](O)[C@H](O)[C@H]2NC(C)=O)O[C@H](C[C@@H](O)[C@H]2O[C@@H](n3ccc(=O)[nH]c3=O)[C@H](O)[C@@H]2O)[C@H](O)[C@@H]1O | 36
3 | CC(=O)N[C@H]1[C@@H](O[C@@H]2O[C@H](CO)[C@H](O)[C@H](O)[C@H]2NC(=O)/C=C/CCCCCCCCCC(C)C)O[C@H](CO)[C@@H](O)[C@@H]1O | > 100
4 | CC(=O)N[C@H]1[C@@H](O[C@@H]2O[C@H](C[C@@H](O)[C@H]3O[C@@H](n4ccc(=O)[nH]c4=O)[C@H](O)[C@@H]3O)[C@H](O)[C@H](O)[C@H]2NC(=O)/C=C/CCCCCCCCCC(C)C)O[C@H](CO)[C@@H](O)[C@@H]1O (stereo in doubt; form 1) | 0.25
5 | CC(=O)N[C@H]1[C@@H](O[C@@H]2O[C@H](C[C@@H](O)[C@H]3O[C@@H](n4ccc(=O)[nH]c4=O)[C@H](O)[C@@H]3O)[C@H](O)[C@H](O)[C@H]2NC(=O)/C=C/CCCCCCCCCC(C)C)O[C@H](CO)[C@@H](O)[C@@H]1O (stereo in doubt; form 2) | 0.35
